Assay results taken from article PMC9326216, “Treatment of Cardiovascular Dysfunction with PDE3-Inhibitors in Moderate and Severe Hypothermia—Effects on Cellular Elimination of Cyclic Adenosine Monophosphate and Cyclic Guanosine Monophosphate” (Frontiers in Physiology, 2022).
Read-outs that look alike come from different tables or passages of the source.

Biological target: T1, ABCC4 (Homo sapiens, UniProt O15439)
T1 sequence (O15439 1-1325): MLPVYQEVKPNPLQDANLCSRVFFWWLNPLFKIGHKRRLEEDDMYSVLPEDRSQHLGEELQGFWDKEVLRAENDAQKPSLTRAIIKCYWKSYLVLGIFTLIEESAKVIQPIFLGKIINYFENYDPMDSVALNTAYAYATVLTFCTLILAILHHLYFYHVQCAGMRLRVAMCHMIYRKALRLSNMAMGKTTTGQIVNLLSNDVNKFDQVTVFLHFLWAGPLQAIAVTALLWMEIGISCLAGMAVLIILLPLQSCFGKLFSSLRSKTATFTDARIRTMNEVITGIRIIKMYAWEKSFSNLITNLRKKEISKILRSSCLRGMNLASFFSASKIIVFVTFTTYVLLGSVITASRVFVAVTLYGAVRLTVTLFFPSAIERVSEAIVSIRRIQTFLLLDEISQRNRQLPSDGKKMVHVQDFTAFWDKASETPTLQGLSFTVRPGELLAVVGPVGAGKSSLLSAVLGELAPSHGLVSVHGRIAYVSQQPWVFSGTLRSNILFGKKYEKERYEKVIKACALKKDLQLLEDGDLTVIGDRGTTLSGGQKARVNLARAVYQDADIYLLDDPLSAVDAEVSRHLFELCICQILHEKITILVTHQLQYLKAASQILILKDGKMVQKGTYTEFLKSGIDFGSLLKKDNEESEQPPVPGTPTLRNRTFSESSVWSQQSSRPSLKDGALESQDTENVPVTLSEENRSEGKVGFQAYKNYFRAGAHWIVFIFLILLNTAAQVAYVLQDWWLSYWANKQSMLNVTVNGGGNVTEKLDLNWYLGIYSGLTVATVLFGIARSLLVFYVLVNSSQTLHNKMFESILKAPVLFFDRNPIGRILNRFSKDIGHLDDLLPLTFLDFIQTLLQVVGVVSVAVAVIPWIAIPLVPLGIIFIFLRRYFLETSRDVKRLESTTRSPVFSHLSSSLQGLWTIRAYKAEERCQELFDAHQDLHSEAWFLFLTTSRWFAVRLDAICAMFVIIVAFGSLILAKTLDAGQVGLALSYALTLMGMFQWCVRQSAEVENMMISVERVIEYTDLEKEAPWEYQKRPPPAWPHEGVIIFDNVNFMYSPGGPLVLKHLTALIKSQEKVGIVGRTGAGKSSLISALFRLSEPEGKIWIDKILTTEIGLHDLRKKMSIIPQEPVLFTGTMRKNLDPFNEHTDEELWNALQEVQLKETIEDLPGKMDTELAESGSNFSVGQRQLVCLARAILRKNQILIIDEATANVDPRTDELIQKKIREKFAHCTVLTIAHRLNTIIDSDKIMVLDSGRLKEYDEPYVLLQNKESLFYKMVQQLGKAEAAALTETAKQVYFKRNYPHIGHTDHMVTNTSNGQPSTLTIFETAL
Test: biochemical
Format: biochemical
Description: Freshly collected EDTA blood from healthy donors (n = 35) was prepared at 0°C–4°C, starting by separating the erythrocytes from plasma by centrifugation at 2,300 g for approximately 15 min. […] Lysis followed thereafter, with ten volumes of 5 mM Tris-HCl, 0.5 mM EGTA, 4 mM KCl (pH 8.1) and washed by repeated centrifugation at 20,000 g for 20 min and resuspension in the same buffer. Vesiculation was initiated by adding 39 volumes of a […] buffer ([…] Tris-HCl, pH 8.2) to one volume of cell suspension and completed by forcing the solution five times through a 27-gauge syringe needle to promote homogenization of the membranes. […] The resulting IOVs, which still contained ABC-transporters in the membrane, enabled us to control the intracellular environment, in this case the surrounding medium, and collect the cyclic nucleotides within. […] Radioactive labeled (^3H)-cAMP or (^3H)-cGMP (Perkin Elmer, Boston, MA, United States) were added to the incubation solutions in the concentration 20 and 2 μM, respectively, depending on the transporter examined, together with the appointed study drug in concentrations up to 1 mM. […] Next step was to collect the IOVs, which was done by filtration through a nitrocellulose membrane (Bio-Rad Laboratories, Feldkirchen, Germany), and then drying it. The resulting collection of radioactivity upon the filter, was later quantified by using a Packard TopCount NXT (Packard, Downers Grove, IL, United states) after adding scintillation fluid (MicroScint-O, PerkinElmer, Groningen, Netherlands).
IC50 and Ki values were calculated for each of the drugs, both for their ability to inhibit cAMP- and cGMP- efflux, as well as PDE3 and PDE5 activity. […] Inhibition curves were created accordingly, both with and without adjustment for normothermic control.

## Nc1cc(-c2ccncc2)c[nH]c1=O [Amrinone]
28°C, cAMP-efflux, inside-out vesicles, 20 µM 3H-cAMP, 60 min, read-out: ABCC4 IC50
  IC50: 8.42 ± 4.81 µM
28°C, cAMP-efflux, inside-out vesicles, read-out: ABCC4 Ki
  Ki: 5.11 ± 2.91 µM
32°C, cAMP-efflux, inside-out vesicles, 20 µM 3H-cAMP, 60 min, read-out: ABCC4 IC50
  IC50: 5.49 ± 2.25 µM
32°C, cAMP-efflux, inside-out vesicles, read-out: ABCC4 Ki
  Ki: 3.33 µM
34°C, cAMP-efflux, inside-out vesicles, 20 µM 3H-cAMP, 60 min, read-out: ABCC4 IC50
  IC50: 1.21 ± 0.1 µM
34°C, cAMP-efflux, inside-out vesicles, read-out: ABCC4 Ki
  Ki: 0.73 ± 0.058 µM
37°C, cAMP-efflux, inside-out vesicles, 20 µM 3H-cAMP, 60 min, read-out: ABCC4 IC50
  IC50: 4.65 ± 3.21 µM
37°C, cAMP-efflux, inside-out vesicles, read-out: ABCC4 Ki
  Ki: 2.82 µM

## C[C@@H]1CC(=O)NN=C1c1ccc(NN=C(C#N)C#N)cc1 [Levosimendan]
28°C
  Drug selectivity (IC50)/(IC50): (cAMP-efflux)/(PDE3) inhibition: 270.65
28°C, Table 3, read-out: ABCC5 IC50 (Table 3)
  IC50: 27.2 ± 21.3 µM
28°C, Table 3, read-out: ABCC5 Ki (Table 3)
  Ki: 16.5 ± 12.9 µM
28°C, listed as L
  Drug selectivity (IC50)/(IC50): (cAMP-efflux)/(PDE3) inhibition: 270.7
32°C
  Drug selectivity (IC50)/(IC50): (cAMP-efflux)/(PDE3) inhibition: 85.98
32°C, Table 3, read-out: ABCC5 IC50 (Table 3)
  IC50: 16.5 ± 5.56 µM
32°C, Table 3, read-out: ABCC5 Ki (Table 3)
  Ki: 10 ± 3.37 µM
34°C
  Drug selectivity (IC50)/(IC50): (cAMP-efflux)/(PDE3) inhibition: 43.45
34°C, Table 3, read-out: ABCC5 IC50 (Table 3)
  IC50: 12.7 ± 6.6 µM
34°C, Table 3, read-out: ABCC5 Ki (Table 3)
  Ki: 7.73 ± 4 µM
37°C
  Drug selectivity (IC50)/(IC50): (cAMP-efflux)/(PDE3) inhibition: 28.76
37°C, Table 3, read-out: ABCC5 IC50 (Table 3)
  IC50: 9.41 ± 5.91 µM
37°C, Table 3, read-out: ABCC5 Ki (Table 3)
  Ki: 5.71 ± 3.58 µM
